Measurements published in PMC9822396 (Molecules, 2022).
Read-outs that look alike come from different tables or passages of the source.

What was measured:
hMAO-A = target: T1, hMAO-A (Homo sapiens, UniProt P21397); assay: biochemical; conditions: for remaining activity at 10 µM: read-out: Residual Activity at 10 µM (%) hMAO-A
T1 construct: purchased Sigma-Aldrich
T1 sequence (P21397 1-527): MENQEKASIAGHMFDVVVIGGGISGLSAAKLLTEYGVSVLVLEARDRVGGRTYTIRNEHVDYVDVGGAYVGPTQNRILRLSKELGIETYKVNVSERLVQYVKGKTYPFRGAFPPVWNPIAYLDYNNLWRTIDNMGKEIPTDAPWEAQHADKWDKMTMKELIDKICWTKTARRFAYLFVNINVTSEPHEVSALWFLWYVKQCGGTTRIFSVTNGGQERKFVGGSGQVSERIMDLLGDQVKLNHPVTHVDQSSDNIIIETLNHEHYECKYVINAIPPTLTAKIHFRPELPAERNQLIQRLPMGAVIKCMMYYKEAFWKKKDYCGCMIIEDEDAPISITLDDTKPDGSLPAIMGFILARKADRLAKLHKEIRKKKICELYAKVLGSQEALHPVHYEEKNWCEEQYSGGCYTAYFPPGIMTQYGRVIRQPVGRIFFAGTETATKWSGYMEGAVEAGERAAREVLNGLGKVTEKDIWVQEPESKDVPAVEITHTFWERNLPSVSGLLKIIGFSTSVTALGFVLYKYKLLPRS
Experimental: (§1) All other chemicals were of reagent grade.
(§2) hMAO-A and -B activities were determined using a continuous spectrophotometric method, as described previously. […] AChE and BChE activities were assayed as described by Ellman et al., with slight modification. Reactions were performed using AChE and BChE in the 0.5 mL reaction mixtures including 0.5 mM substrate (ATCI and BTCI, respectively) and color reagent (DTNB). […] Reaction rates are expressed as changes in absorbance per min.. Inhibitory activities of AChE and BChE were measured after preincubating enzyme with inhibitors for 15 min before adding DTNB and each substrate.
Inhibitory types and Ki values were determined using Lineweaver-Burk plots and secondary plots of their slopes, respectively.

AChE = target: T2, AChE (Electrophorus electricus, UniProt O42275); assay: AChE inhibition (Ellman method); format: biochemical; conditions: read-out: Residual Activity at 10 µM (%) AChE
T2 construct: purchased Sigma-Aldrich
Experimental: as §1
as §2, with “substrate. […]” for “substrate.”

BChE = target: T3, BChE (Equus caballus, UniProt P81908); assay: BChE inhibition (Ellman method); format: biochemical, equine; conditions: read-out: Residual Activity at 10 µM (%) BChE
T3 construct: BChE from equine serum; purchased Sigma-Aldrich; host or cells: equine serum
Experimental: as §1
as §2, with “substrate. […]” for “substrate.”

hMAO-B [1] = target: T4, hMAO-B (Homo sapiens, UniProt P27338); assay: biochemical; format: biochemical; conditions: for SI: hMAO-B selectivity: IC50 of hMAO-A divided by IC50 of hMAO-B; for remaining activity at 10 µM: read-out: Residual Activity at 10 µM (%) hMAO-B
T4 construct: purchased Sigma-Aldrich
T4 sequence (P27338 1-520): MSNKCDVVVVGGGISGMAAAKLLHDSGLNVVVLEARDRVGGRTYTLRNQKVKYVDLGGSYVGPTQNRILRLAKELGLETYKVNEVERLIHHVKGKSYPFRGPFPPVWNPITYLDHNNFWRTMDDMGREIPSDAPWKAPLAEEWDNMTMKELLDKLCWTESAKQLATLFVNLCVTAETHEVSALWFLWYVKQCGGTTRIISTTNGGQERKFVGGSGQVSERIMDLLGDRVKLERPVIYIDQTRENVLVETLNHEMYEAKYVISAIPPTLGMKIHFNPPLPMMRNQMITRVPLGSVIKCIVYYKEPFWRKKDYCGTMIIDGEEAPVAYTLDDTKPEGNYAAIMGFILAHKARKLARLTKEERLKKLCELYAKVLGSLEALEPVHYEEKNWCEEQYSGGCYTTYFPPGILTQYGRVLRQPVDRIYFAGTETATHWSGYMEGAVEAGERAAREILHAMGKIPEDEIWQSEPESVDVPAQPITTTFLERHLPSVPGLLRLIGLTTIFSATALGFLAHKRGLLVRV
Experimental: as §1
as §2, with “substrate. […]” for “substrate.”

BACE1 = target: T5, BACE1 (Homo sapiens, UniProt P56817); assay: BACE1 inhibition (fluorescent activity detection kit); format: biochemical; conditions: read-out: Residual Activity at 10 µM (%) BACE1
T5 construct: purchased Sigma-Aldrich

hMAO-B [2] = target: T4, hMAO-B; conditions: read-out: hMAO-B inhibitory activity; cited from earlier work

T2 sequence (O42275 24-633): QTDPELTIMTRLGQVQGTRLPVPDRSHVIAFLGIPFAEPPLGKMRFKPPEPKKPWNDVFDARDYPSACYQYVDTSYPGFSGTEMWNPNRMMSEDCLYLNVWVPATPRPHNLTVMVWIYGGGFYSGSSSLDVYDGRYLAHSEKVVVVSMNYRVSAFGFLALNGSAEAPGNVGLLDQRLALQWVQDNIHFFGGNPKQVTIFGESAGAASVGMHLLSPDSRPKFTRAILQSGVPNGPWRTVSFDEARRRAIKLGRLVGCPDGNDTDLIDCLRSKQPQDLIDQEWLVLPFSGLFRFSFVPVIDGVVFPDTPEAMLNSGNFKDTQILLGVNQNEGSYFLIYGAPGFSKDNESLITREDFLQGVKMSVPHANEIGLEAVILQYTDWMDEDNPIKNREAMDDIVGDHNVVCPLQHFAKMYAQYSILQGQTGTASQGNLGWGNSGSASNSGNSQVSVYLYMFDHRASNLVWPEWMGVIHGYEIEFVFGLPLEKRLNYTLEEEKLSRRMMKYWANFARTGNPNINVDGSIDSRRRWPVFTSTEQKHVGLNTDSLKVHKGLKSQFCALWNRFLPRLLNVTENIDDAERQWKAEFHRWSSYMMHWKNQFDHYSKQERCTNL
T3 sequence (P81908 whole entry): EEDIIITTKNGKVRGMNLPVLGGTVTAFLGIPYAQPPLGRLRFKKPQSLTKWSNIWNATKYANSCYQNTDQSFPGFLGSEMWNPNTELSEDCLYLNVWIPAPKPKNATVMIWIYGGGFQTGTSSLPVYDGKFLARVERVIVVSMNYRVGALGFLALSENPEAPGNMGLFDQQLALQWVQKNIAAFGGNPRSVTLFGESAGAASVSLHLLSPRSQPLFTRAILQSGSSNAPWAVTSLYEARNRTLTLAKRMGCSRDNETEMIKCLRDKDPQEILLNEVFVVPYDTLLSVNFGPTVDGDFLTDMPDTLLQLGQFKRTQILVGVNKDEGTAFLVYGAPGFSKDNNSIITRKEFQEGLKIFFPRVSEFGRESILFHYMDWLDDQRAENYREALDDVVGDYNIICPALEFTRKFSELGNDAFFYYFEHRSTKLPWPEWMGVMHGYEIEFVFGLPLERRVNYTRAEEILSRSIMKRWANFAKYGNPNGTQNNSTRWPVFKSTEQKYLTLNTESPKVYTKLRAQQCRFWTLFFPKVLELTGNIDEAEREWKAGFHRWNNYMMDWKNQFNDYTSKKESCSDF
T5 sequence (P56817 46-501): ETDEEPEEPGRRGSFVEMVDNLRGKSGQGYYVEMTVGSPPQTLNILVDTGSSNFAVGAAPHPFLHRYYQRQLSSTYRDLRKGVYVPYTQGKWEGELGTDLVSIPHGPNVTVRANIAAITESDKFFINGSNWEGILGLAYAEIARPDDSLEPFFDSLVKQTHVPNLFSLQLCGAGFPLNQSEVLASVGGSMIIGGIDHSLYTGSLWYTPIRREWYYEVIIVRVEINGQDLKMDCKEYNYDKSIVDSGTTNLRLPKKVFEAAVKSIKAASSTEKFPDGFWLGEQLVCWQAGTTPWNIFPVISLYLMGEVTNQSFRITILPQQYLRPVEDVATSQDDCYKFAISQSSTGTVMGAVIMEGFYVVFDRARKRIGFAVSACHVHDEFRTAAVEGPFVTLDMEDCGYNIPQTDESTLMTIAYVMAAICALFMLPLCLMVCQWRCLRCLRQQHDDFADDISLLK

Structure (SMILES)	IC50 (hMAO-A) [µM]	remaining activity at 10 µM (hMAO-A) [%]	remaining activity at 10 µM (AChE) [%]	remaining activity at 10 µM (BChE) [%]	IC50 (hMAO-B [1]) [µM]	SI (hMAO-B [1])	remaining activity at 10 µM (hMAO-B [1]) [%]	remaining activity at 10 µM (BACE1) [%]	IC50 (hMAO-B [2]) [µM]	times lower MAO-B inhibition than compound 8 (hMAO-B [1]; ratio of IC50 values versus compound 8) [times]
COc1cc(O)c2c(=O)c(-c3ccc(O)cc3O)coc2c1 [Compound 7, cajanin]	13.1 ± 0.23	56.9 ± 0.92	70.8 ± 7.2	86.9 ± 2.11	5.18 ± 0.11	2.53	31.6 ± 4.21	83.25 ± 0.45	–	–
COc1cc2c(cc1O[C@@H]1O[C@H](CO)[C@@H](O)[C@H](O)[C@H]1O)O[C@H](c1ccccc1)[C@@H](O)C2=O [Compound 2, (2R,3R)-3-hydroxy-7-O-β-D-glucopyranoside-6-methoxyflavanone]	> 40	98.3 ± 2.01	84.8	97.5 ± 0.42	> 40	–	69.6 ± 2.46	164 ± 2.96	–	–
COc1cc2c(cc1O)O[C@H](c1ccccc1)[C@@H](O)C2=O [Compound 6, (2R,3R)-3,7-dihydroxy-6-methoxyflavanone]	> 40	94.8 ± 1.9	84.3 ± 1.31	91.8 ± 1.35	> 40	–	94.6 ± 4.21	95.72 ± 0.86	–	–
COc1ccc(-c2coc3cc(O[C@@H]4O[C@H](CO)[C@@H](O)[C@H](O)[C@H]4O)ccc3c2=O)cc1 [Compound 4, ononin]	> 40	98.3 ± 1.64	86.1 ± 1.79	96.7 ± 1.68	28.5 ± 1.55	>1.40	63.5 ± 1.23	85.9 ± 0.08	–	–
COc1cc([C@H]2OC[C@H]3[C@@H]2CO[C@@H]3c2cc(OC)c(O)c(OC)c2)cc(OC)c1O [Compound 5, (+)-syringaresinol]	> 40	80.4 ± 6.57	–	–	24.3 ± 2.2	–	63.2 ± 6.24	81.7 ± 4.01	–	–
COc1ccc(-c2coc3cc(O)ccc3c2=O)cc1O [calycosin]	–	–	–	–	–	–	–	–	0.24	–
COc1ccc(-c2cc(=O)c3c(O)cc(OC)cc3o2)cc1 [acacetin 7-methyl ether]	–	–	–	–	–	–	–	–	0.2	–
COc1ccc2c(c1)OC[C@H]1c3cc4c(cc3O[C@@H]21)OCO4 [Compound 12, 3-methoxy-8,9-methylenedioxypterocarpan]	12.5 ± 0.33	60.3 ± 0.9	84.9 ± 0.61	93.6 ± 2.11	3.36 ± 0.09	3.72	13 ± 0.72	102.4 ± 0.4	–	7.47
COc1cc(O)c2c(=O)c(-c3ccc(O)cc3)coc2c1 [Compound 9, prunetin]	2.49 ± 0.32	24.8 ± 1.22	83.2 ± 4.76	93 ± 0.65	5.18 ± 0.059	0.48	30.8 ± 0.82	87.73 ± 0.59	–	–
C[C@@H]1O[C@@H](OC[C@H]2O[C@@H](Oc3c(-c4ccc(O)c(O)c4)oc4cc(O)cc(O)c4c3=O)[C@H](O)[C@@H](O)[C@@H]2O)[C@H](O)[C@H](O)[C@H]1O [Compound 1, rutin]	> 40	96.8 ± 1.52	92.4 ± 7.16	99.2 ± 0.88	> 40	–	75.2 ± 6.76	82.6 ± 3.77	–	–
COc1ccc(-c2coc3cc(OC)ccc3c2=O)cc1 [Compound 11, 7,4′-dimethoxyisoflavone]	9.8 ± 0.27	49.1 ± 2.25	82.7 ± 5.44	98.7 ± 0.66	13.7 ± 0.1	0.72	62 ± 1.09	91.96 ± 0.59	–	–
COc1cc(O)c2c(=O)c(-c3ccc(OC)c(O)c3)coc2c1 [Compound 10, 7,4′-dimethyl-3′-hydroxygenistein]	8.05 ± 0.1	41 ± 1.09	78.4 ± 3.4	98.1 ± 1.98	3.47 ± 0.055	2.32	16.9 ± 2.47	78.86 ± 0.56	–	–
COc1cc([C@H]2OC[C@H]3[C@@H]2CO[C@@H]3c2cc(OC)c(O[C@@H]3O[C@H](CO)[C@@H](O)[C@H](O)[C@H]3O)c(OC)c2)cc(OC)c1O [Compound 3, (–)-syringaresinol-4-O-β-D-glucopyranoside]	> 40	80 ± 2.02	95.22 ± 0.08	98.9 ± 1.54	> 40	–	93.6 ± 3.47	76.7 ± 4.92	–	–
